Test results taken from patent US8822698B2, “Aminoacid derivatives, their process of preparation and their therapeutical uses as inhibitors of oncogenic signals by the Met family” (Universite D'Aix-Marseille, priority 2009, dated 2014).

Key:
Assay in all cases: NCI 60 human tumour cell line screen
Format in all cases: cell-based
HS 578T = conditions: conc. 10^−5M, Breast Cancer
Excerpt: (§1) Compound of example 4 was screened in the NCI 60 human tumour cell line anticancer drug screen (Shoemaker et al Nature reviews 6, 2006, 813-823).

SF-268 = conditions: conc. 10^−5M; SF-268, CNS Cancer
Excerpt: as §1

CCRF-CEM = conditions: conc. 10^−5M, Leukemia
Excerpt: as §1

SNB-19 = conditions: conc. 10^−5M; SNB-19, CNS Cancer
Excerpt: as §1

LOX IMVI = conditions: conc. 10^−5M, Melanoma
Excerpt: as §1

CAK I-1 = conditions: conc. 10^−5M; CAK I-1, Renal Cancer
Excerpt: as §1

HCT-15 = conditions: conc. 10^−5M; HCT-15, Colon Cancer
Excerpt: as §1

SN12C = conditions: conc. 10^−5M, Renal Cancer
Excerpt: as §1

786-0 = conditions: conc. 10^−5M; 786-0, Renal Cancer
Excerpt: as §1

HT29 = conditions: conc. 10^−5M; HT29, Colon Cancer
Excerpt: as §1

PC-3 = conditions: conc. 10^−5M; PC-3, Prostate Cancer
Excerpt: as §1

NCl/ADR-RES = conditions: conc. 10^−5M, Ovarian Cancer
Excerpt: as §1

MDA-MB-435 = conditions: conc. 10^−5M; MDA-MB-435, Melanoma
Excerpt: as §1

RXF 393 = conditions: conc. 10^−5M; RXF 393, Renal Cancer
Excerpt: as §1

SW-620 = conditions: conc. 10^−5M; SW-620, Colon Cancer
Excerpt: as §1

NCl-H322M = conditions: conc. 10^−5M, Non-Small Cell Lung Cancer
Excerpt: as §1

SR = conditions: conc. 10^−5M, Leukemia
Excerpt: as §1

MCF7 = conditions: conc. 10^−5M; MCF7, Breast Cancer
Excerpt: as §1

OVCAR-4 = conditions: conc. 10^−5M; OVCAR-4, Ovarian Cancer
Excerpt: as §1

OVCAR-5 = conditions: conc. 10^−5M; OVCAR-5, Ovarian Cancer
Excerpt: as §1

SF-295 = conditions: conc. 10^−5M; SF-295, CNS Cancer
Excerpt: as §1

RPMI -8226 = conditions: conc. 10^−5M; RPMI -8226, Leukemia
Excerpt: as §1

BT-549 = conditions: conc. 10^−5M; BT-549, Breast Cancer
Excerpt: as §1

HL-60(TB) = conditions: conc. 10^−5M, Leukemia
Excerpt: as §1

A549/ATCC = conditions: conc. 10^−5M, Non-Small Cell Lung Cancer
Excerpt: as §1

HCC-2998 = conditions: conc. 10^−5M; HCC-2998, Colon Cancer
Excerpt: as §1

K-562 = conditions: conc. 10^−5M; K-562, Leukemia
Excerpt: as §1

SNB-75 = conditions: conc. 10^−5M; SNB-75, CNS Cancer
Excerpt: as §1

SK-MEL-5 = conditions: conc. 10^−5M; SK-MEL-5, Melanoma
Excerpt: as §1

M14 = conditions: conc. 10^−5M; M14, Melanoma
Excerpt: as §1

U251 = conditions: conc. 10^−5M; U251, CNS Cancer
Excerpt: as §1

SK-MEL-28 = conditions: conc. 10^−5M; SK-MEL-28, Melanoma
Excerpt: as §1

EKVX = conditions: conc. 10^−5M, Non-Small Cell Lung Cancer
Excerpt: as §1

DU-145 = conditions: conc. 10^−5M; DU-145, Prostate Cancer
Excerpt: as §1

MDA-MB-468 = conditions: conc. 10^−5M; MDA-MB-468, Breast Cancer
Excerpt: as §1

T-47D = conditions: conc. 10^−5M, Breast Cancer
Excerpt: as §1

UACC-257 = conditions: conc. 10^−5M; UACC-257, Melanoma
Excerpt: as §1

SK-MEL-2 = conditions: conc. 10^−5M; SK-MEL-2, Melanoma
Excerpt: as §1

TK-10 = conditions: conc. 10^−5M; TK-10, Renal Cancer
Excerpt: as §1

IGROV 1 = conditions: conc. 10^−5M; IGROV 1, Ovarian Cancer
Excerpt: as §1

ACHN = conditions: conc. 10^−5M, Renal Cancer
Excerpt: as §1

MOLT-4 = conditions: conc. 10^−5M; MOLT-4, Leukemia
Excerpt: as §1

With O=C(Cc1cc(C(F)(F)F)cc(C(F)(F)F)c1)N[C@@H](Cc1ccccc1)C(=O)Nc1ccc(-c2cn3c(n2)sc2ccccc23)cc1 [Example 4, (S)-2-(3,5-bis(trifluoromethyl)phenylacetamido)-3-phenyl-N-[4-(imidazo[2,1-b]benzothiazol-2-yl)phenyl]propanamide] the “Growth Percent” value (HS 578T) was 16.75%, the “Growth Percent” value (SF-268) was 29.28% and the “Growth Percent” value (CCRF-CEM) was 32.94%. The “Growth Percent” value (SNB-19) was 69.84%, the “Growth Percent” value (LOX IMVI) was 26.60% and the “Growth Percent” value (CAK I-1) was 53.37%. The “Growth Percent” value (HCT-15) was 44.16%, the “Growth Percent” value (SN12C) was 47.40% and the “Growth Percent” value (786-0) was 60.35%. For the same molecule, the “Growth Percent” value (HT29) was 18.28%, the “Growth Percent” value (PC-3) was 38.29% and the “Growth Percent” value (NCl/ADR-RES) was 43.07%. The “Growth Percent” value (MDA-MB-435) was 54.92%, the “Growth Percent” value (RXF 393) was 47.02% and the “Growth Percent” value (SW-620) was 12.13%. The “Growth Percent” value (NCl-H322M) was 28.70%, the “Growth Percent” value (SR) was 58.33% and the “Growth Percent” value (MCF7) was 59.09%. For the same molecule, the “Growth Percent” value (OVCAR-4) was −0.79%, the “Growth Percent” value (OVCAR-5) was 97.36% and the “Growth Percent” value (SF-295) was 42.18%. For the same molecule, the “Growth Percent” value (RPMI -8226) was 66.73%, the “Growth Percent” value (BT-549) was 82.05% and the “Growth Percent” value (HL-60(TB)) was 79.95%. For the same molecule, the “Growth Percent” value (A549/ATCC) was 31.71%, the “Growth Percent” value (HCC-2998) was 98.28% and the “Growth Percent” value (K-562) was 63.10%. For the same molecule, the “Growth Percent” value (SNB-75) was 20.69%, the “Growth Percent” value (SK-MEL-5) was 10.83% and the “Growth Percent” value (M14) was 30.58%. For the same molecule, the “Growth Percent” value (U251) was 34.24%, the “Growth Percent” value (SK-MEL-28) was 26.28% and the “Growth Percent” value (EKVX) was 15.48%. The “Growth Percent” value (DU-145) was 70.37%, the “Growth Percent” value (MDA-MB-468) was 78.09% and the “Growth Percent” value (T-47D) was 67.66%. For the same molecule, the “Growth Percent” value (UACC-257) was 55.20%, the “Growth Percent” value (SK-MEL-2) was 45.85% and the “Growth Percent” value (TK-10) was 61.11%. For the same molecule, the “Growth Percent” value (IGROV 1) was 13.32%, the “Growth Percent” value (ACHN) was 81.23% and the “Growth Percent” value (MOLT-4) was 43.46%.
